Consider 46 compounds from ChEMBL document CHEMBL1140397, “Discovery of 4-aryl-4H-chromenes as a new series of apoptosis inducers using a cell- and caspase-based high-throughput screening assay. 2. Structure-activity relationships of the 7- and 5-, 6-, 8-positions” (Bioorg Med Chem Lett, 2005).

Holding throughout (format): functional
For assay [1], the system named is NCI-H1299. Put plainly: Effective concentration against human non-small cell lung cancer H1299 cells inducing apoptosis activity was measured by using cell and caspase-based HTS assay.
In assay [2] the test system is T47D. Put plainly: Growth inhibitory activity against human breast cancer T47D cell line.
Assay [3] relates to T47D. The assay is described as follows: Effective concentration against human breast cancer T47D cell line inducing apoptosis activity was measured by cell and caspase-based HTS assay.
Assay [4] deals with NCI-H1299. The assay is described as follows: Growth inhibitory activity against human non-small cell lung cancer H1299 cells.
Assay [5] relates to T47D. Put plainly: Ratio of inhibition of cell proliferation activity to that of caspase activation inducing apoptosis activity in human breast cancer T47D cell line.
The subject of assay [6] is T47D. The assay is described as follows: Effective concentration against human breast cancer T47D cell line apoptosis inducing activity was measured by using cell and caspase-based HTS assay.
Assay [7] has as its system NCI-H1299. The assay is described as follows: Effective concentration against human non-small cell lung cancer H1299 cells inducing apoptosis, activity was measured by cell and caspase-based HTS assay.
The target in assay [8] is Tubulin beta-4B chain (Homo sapiens, UniProt P68371). Put plainly: Inhibitory activity against tubulin using tubulin polymerization assay.
Chain of Tubulin beta-4B chain (P68371 whole entry): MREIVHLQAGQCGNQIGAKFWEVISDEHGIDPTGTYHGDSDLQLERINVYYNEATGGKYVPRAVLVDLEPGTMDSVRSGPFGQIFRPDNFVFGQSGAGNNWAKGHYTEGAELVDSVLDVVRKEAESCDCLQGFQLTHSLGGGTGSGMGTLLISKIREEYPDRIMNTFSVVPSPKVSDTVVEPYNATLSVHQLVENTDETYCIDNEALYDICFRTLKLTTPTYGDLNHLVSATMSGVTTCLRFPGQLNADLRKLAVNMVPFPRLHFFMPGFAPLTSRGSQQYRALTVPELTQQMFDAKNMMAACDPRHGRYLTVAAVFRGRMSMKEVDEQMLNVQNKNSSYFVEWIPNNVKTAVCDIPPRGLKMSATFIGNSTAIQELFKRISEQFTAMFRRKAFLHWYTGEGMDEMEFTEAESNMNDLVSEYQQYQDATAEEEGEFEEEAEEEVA

Turning to `COc1cc(OC)c2c(c1)OC(N)=C(C#N)C2c1cc(OC)c2c(c1)OCO2` (stereo not given), the EC50 in assay [1] and in assay [3] was > 10000 nM each time. Further, the GI50 (as a rule, the concentration at which growth is held to half of that of the control) is > 10000 nM in assay [2] and > 10000 nM in assay [4] (Homo sapiens, NCI-H1299). Also, in assay [5], the GI50/EC50 is on record as 1.
`CCCCNc1ccc2c(c1)OC(N)=C(C#N)C2c1cccc(Cl)c1` (stereo not given): the EC50 (as a rule, the concentration at which the effect is half-maximal) in assay [6] came to 120 nM; in assay [7], 190 nM.
On to `COc1ccc2c(c1)OC(N)=C(C#N)C2c1cc(Br)c(OC)c(OC)c1` (stereo not given), for which the results for the EC50 in assay [1] and in assay [6] were 34 nM and 17 nM, respectively. Moreover, the GI50 was found to be 8 nM in assay [2] and 9 nM in assay [4] (Homo sapiens, NCI-H1299). Also, the GI50/EC50 in assay [5] was 0.47.
Regarding `COc1ccc2c(c1)OC(N)=C(C#N)C2c1cccc(Br)c1` (stereo not given), the results for the EC50 in assay [6] and in assay [7] were 52 nM and 95 nM, respectively.
The corresponding values for `COc1ccc2c(c1)OC(N)=C(C#N)C2c1cccc(Cl)c1` (stereo not given) are 80 nM and 160 nM.
For `COc1cc(OC)cc(C2C(C#N)=C(N)Oc3cc(OC)ccc32)c1` (stereo not given) the same measures were 15 nM and 32 nM.
The corresponding values for `COc1ccc2c(c1)OC(N)=C(C#N)C2c1cccc([N+](=O)[O-])c1` (stereo not given) are 89 nM and 170 nM.
For `CCNc1ccc2c(c1)OC(N)=C(C#N)C2c1cc(OC)c2c(c1)OCO2` (stereo not given), the figures for the EC50 in assay [1] and in assay [3] were 400 nM and 330 nM, respectively.
As to `CCCCNc1ccc2c(c1)OC(N)=C(C#N)C2c1cccc([N+](=O)[O-])c1` (stereo not given), the EC50 came out at 110 nM in assay [6] and 170 nM in assay [7].
With `CCNc1cc2c(cc1C)C(c1cc(OC)c3c(c1)OCO3)C(C#N)=C(N)O2` (stereo not given), the EC50 in assay [1] is 1400 nM; in assay [3], 1100 nM.
Consider `COc1cc(C2C(C#N)=C(N)Oc3cc(Cl)ccc32)cc(Br)c1OC` (stereo not given), for which the EC50 in assay [1] is 290 nM; in assay [6] it was 160 nM. The GI50 in assay [2] turned out to be 64 nM; in assay [4] (Homo sapiens, NCI-H1299), 55 nM.
With `CCOc1ccc2c(c1)OC(N)=C(C#N)C2c1cc(Br)c(OC)c(OC)c1` (stereo not given), the EC50 is 64 nM in assay [6] and 92 nM in assay [7].
Turning to `COc1cc(C2C(C#N)=C(N)Oc3cc(N4CCOCC4)ccc32)cc2c1OCO2` (stereo not given), the concentration for a half-maximal effect (EC50) in assay [1] and in assay [3] was > 10000 nM in each case.
Consider `COc1cc(C2C(C#N)=C(N)Oc3cc(O)ccc32)cc(Br)c1OC` (stereo not given), for which the EC50 in assay [6] was 130 nM; in assay [7] it was 210 nM. Besides, the GI50 came out at 800 nM in assay [2] and 190 nM in assay [4] (Homo sapiens, NCI-H1299). In assay [5], the GI50/EC50 was 6.1.
As for `COc1cc(C2C(C#N)=C(N)Oc3c2ccc(N)c3C)cc2c1OCO2` (stereo not given), the EC50 in assay [1] came out at 770 nM; in assay [6] it was 310 nM. Besides, the GI50 was 860 nM in assay [4] and 490 nM in assay [4] (Homo sapiens, NCI-H1299).
In the case of `N#CC1=C(N)Oc2c(ccc(N)c2N)C1c1cccc(Br)c1` (stereo not given), the EC50 in assay [6] stood at 150 nM; in assay [7] it was 230 nM.
The corresponding values for `COc1cc(C2C(C#N)=C(N)Oc3c2ccc(O)c3O)cc(Br)c1OC` (stereo not given) are 1700 nM and 2500 nM.
The corresponding values for `COc1ccc2c(c1)OC(N)=C(C#N)C2c1ccccc1` (stereo not given) are 360 nM and 520 nM.
The corresponding values for `COc1ccc2c(c1)OC(N)=C(C#N)C2c1cc(OC)c(OC)c(OC)c1` (stereo not given) are 26 nM and 57 nM.
Regarding `COc1ccc2c(c1)OC(N)=C(C#N)C2c1cc(OC)c2c(c1)OCO2` (stereo not given), the EC50 in assay [1] is 230 nM; in assay [3], 160 nM. The GI50 amounted to 260 nM in assay [2] and 240 nM in assay [4] (Homo sapiens, NCI-H1299). In addition, the GI50/EC50 in assay [5] is 1.6.
For `CCCCNc1ccc2c(c1)OC(N)=C(C#N)C2c1cc(OC)c(OC)c(OC)c1` (stereo not given), the EC50 in assay [6] amounted to 49 nM; in assay [7], 110 nM.
The corresponding values for `COc1ccc2c(c1)OC(N)=C(C#N)C2c1cccnc1` (stereo not given) are 170 nM and 290 nM.
The corresponding values for `N#CC1=C(N)Oc2c(ccc(N)c2N)C1c1cccc(C#N)c1` (stereo not given) are 390 nM and 460 nM.
As to `COc1cc(C2C(C#N)=C(N)Oc3cc4c(cc32)OCO4)cc2c1OCO2` (stereo not given), the EC50 in assay [1] turned out to be 270 nM; in assay [6], 210 nM.
As to `COc1cc(C2C(C#N)=C(N)Oc3c2ccc(C)c3C)cc(Br)c1OC` (stereo not given), the EC50 stood at 42 nM in assay [6] and 87 nM in assay [7].
`COc1cc(C2C(C#N)=C(N)Oc3c2ccc(N)c3N)cc(Br)c1O` (stereo not given): the EC50 amounted to 23 nM in assay [6] and 62 nM in assay [7].
For the compound `CCCCNc1ccc2c(c1)OC(N)=C(C#N)C2c1cc(OC)cc(OC)c1` (stereo not given), the EC50 in assay [6] was 55 nM; in assay [7] it was 120 nM.
Take `COc1cc(C2C(C#N)=C(N)Oc3c2ccc(N)c3N)cc(I)c1OC` (stereo not given): the EC50 in assay [6] turned out to be 49 nM; in assay [7], 100 nM.
For `COc1cc(C2C(C#N)=C(N)Oc3c2ccc(N)c3N)cc(Cl)c1OC` (stereo not given) the same measures were 24 nM and 58 nM.
In the case of `CCN(CC)c1ccc2c(c1)OC(N)=C(C#N)C2c1cc(OC)c2c(c1)OCO2` (stereo not given), the EC50 is 530 nM in assay [1] and 480 nM in assay [3].
`COc1cc(C2C(C#N)=C(N)Oc3cc(O)ccc32)cc2c1OCO2` (stereo not given): the results for the EC50 in assay [1] and in assay [3] were 5600 nM and 5800 nM, respectively. The GI50 came out at 6080 nM in assay [2] and 5500 nM in assay [4] (Homo sapiens, NCI-H1299). In addition, in assay [5], the GI50/EC50 is given as 1.
As for `CCCCNc1ccc2c(c1)OC(N)=C(C#N)C2c1cccc(OC)c1` (stereo not given), the EC50 in assay [6] turned out to be 110 nM; in assay [7], 190 nM.
The corresponding values for `COc1cc(C2C(C#N)=C(N)Oc3cc(Br)ccc32)cc(Br)c1OC` (stereo not given) are 140 nM and 280 nM.
For `COc1cc(C2C(C#N)=C(N)Oc3c2ccc(N)c3N)cc(Br)c1OC` (stereo not given), the EC50 came to 34 nM in assay [6] and 81 nM in assay [7]. Further, the GI50 in assay [2] turned out to be 150 nM; in assay [4] (Homo sapiens, NCI-H1299) it was 31 nM. For the same compound, the GI50/EC50 in assay [5] amounted to 4.4.
In the case of `COc1cc(OC)cc(C2C(C#N)=C(N)Oc3c2ccc(N)c3N)c1` (stereo not given), the EC50 in assay [6] was determined as 92 nM; in assay [7] it was 190 nM.
For `COc1cc2c(cc1OC)C(c1cc(OC)c3c(c1)OCO3)C(C#N)=C(N)O2` (stereo not given), the EC50 in assay [1] and in assay [3] was > 10000 nM each time. Besides, the GI50 in assay [2] was > 10000 nM; in assay [4] (Homo sapiens, NCI-H1299), > 10000 nM. For the same compound, in assay [5], the GI50/EC50 is on record as 1.
With `CCNc1ccc2c(c1)OC(N)=C(C#N)C2c1cc(Br)c(OC)c(OC)c1` (stereo not given), the EC50 stood at 27 nM in assay [1] and 14 nM in assay [6].
Consider `COc1cc(C2C(C#N)=C(N)Oc3cc(Nc4ccccc4)ccc32)cc2c1OCO2` (stereo not given), for which the EC50 in assay [1] and in assay [3] was > 10000 nM each time.
For the compound `COc1cccc(C2C(C#N)=C(N)Oc3cc(OC)ccc32)c1` (stereo not given), the EC50 was found to be 52 nM in assay [6] and 89 nM in assay [7].
As to `COc1cc(C2C(C#N)=C(N)Oc3cc(N(C)C)ccc32)cc2c1OCO2` (stereo not given), the EC50 stood at 93 nM in assay [1] and 730 nM in assay [3].
Consider `COc1cc(C2C(C#N)=C(N)Oc3cc(N)ccc32)cc2c1OCO2` (stereo not given), for which the values for the concentration giving a half-maximal response (EC50) in assay [1] and in assay [3] were 1700 nM and 1200 nM, respectively. Further, the GI50 in assay [2] came to 2400 nM; in assay [4] (Homo sapiens, NCI-H1299), 1200 nM. Also, in assay [5], the GI50/EC50 stood at 2.1.
As to `N#CC1=C(N)Oc2c(ccc(N)c2N)C1c1cccc([N+](=O)[O-])c1` (stereo not given), the values for the EC50 in assay [6] and in assay [7] were 390 nM and 420 nM, respectively.
Regarding `COc1cc(C2C(C#N)=C(N)Oc3c2ccc(O)c3N)cc(Br)c1OC` (stereo not given), the EC50 was determined as 61 nM in assay [6] and 180 nM in assay [7]. The GI50 in assay [2] worked out at 120 nM; in assay [4] (Homo sapiens, NCI-H1299), 110 nM. The GI50/EC50 in assay [5] is 2.
Take `COc1cncc(C2C(C#N)=C(N)Oc3cc(OC)ccc32)c1` (stereo not given): the EC50 is 47 nM in assay [6] and 100 nM in assay [7]. Further, the GI50 in assay [2] was 65 nM; in assay [4] (Homo sapiens, NCI-H1299), 72 nM. Moreover, in assay [5], the GI50/EC50 worked out at 1.4.
For `COc1cc(C2C(C#N)=C(N)Oc3cc(N)ccc32)cc(Br)c1OC` (stereo not given), the figures for the EC50 in assay [1] and in assay [6] were 67 nM and 33 nM, respectively. Moreover, the IC50 (in general, the concentration that gives 50% inhibition) in assay [8] was < 500 nM. Moreover, the GI50 was determined as 77 nM in assay [2] and 76 nM in assay [4] (Homo sapiens, NCI-H1299). Moreover, in assay [5], the GI50/EC50 was 2.3.
Regarding `COc1cc(C2C(C#N)=C(N)Oc3c2ccc(N)c3C)cc(Br)c1OC` (stereo not given), the EC50 was 26 nM in assay [6] and 53 nM in assay [7].
